Data: PubChem BioAssay (NCI)
Where “and” joins values, the source holds several entries; their conditions need not be identical. Equal entries are not always repeated.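 Five compound concentrations were applied to cells in 96-well plates for 48 hours; endpoints were derived by simple linear interpolation of the resulting dose-response curve. GI50 = concentration required for 50% inhibition of growth. TGI denotes the concentration required for complete inhibition of growth.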

Assays:
Assay in all cases: NCI anticancer screen, dose series, 48 h
HCC-2998 colon = system: HCC-2998 colon
MCF7 breast = system: MCF7 breast
NCI-H226 lung = system: NCI-H226 lung
PC-3 prostate = system: PC-3 prostate
SF-539 CNS = system: SF-539 CNS
SW-620 colon = system: SW-620 colon
IGROV1 ovarian = system: IGROV1 ovarian
M14 melanoma = system: M14 melanoma
OVCAR-3 ovarian = system: OVCAR-3 ovarian
HOP-92 NSCLC = system: HOP-92 NSCLC

| Structure (SMILES) | TGI (HCC-2998 colon) [µM] | TGI (MCF7 breast) [µM] | TGI (NCI-H226 lung) [µM] | TGI (PC-3 prostate) [µM] | TGI (SF-539 CNS) [µM] | TGI (SW-620 colon) [µM] | TGI (IGROV1 ovarian) [µM] | TGI (M14 melanoma) [µM] | TGI (OVCAR-3 ovarian) [µM] | TGI (HOP-92 NSCLC) [µM] | GI50 (HOP-92 NSCLC) | GI50 (M14 melanoma) [µM] | GI50 (MCF7 breast) [µM] | GI50 (OVCAR-3 ovarian) [µM] | GI50 (PC-3 prostate) [µM] | GI50 (SF-539 CNS) [µM] |
| --- | --- | --- | --- | --- | --- | --- | --- | --- | --- | --- | --- | --- | --- | --- | --- | --- |
| CSc1c(C#N)c(=O)n(N)c2n[nH]c(C)c12 | > 100 | > 100 | > 100 | > 100 | > 100 | > 100 | – | – | – | – | – | – | – | – | – | – |
| COc1ccc(-c2c3c(n(C4OC(COC(C)=O)C(OC(C)=O)C(OC(C)=O)C4OC(C)=O)c(=S)c2C#N)CCCC3)cc1 (stereo not drawn) | > 100 | > 100 | > 100 | 66.7 | > 100 | > 100 | > 100 | > 100 | 92.6 | – | – | – | – | – | – | – |
| C[C@@H](Br)[C@@H]1CC[C@H]2c3[nH]c4ccccc4c3CCN2C1 | 31.3 | 77.6 | > 100 | 75.4 | – | 70.8 | 77.8 | 44 | 42.4 | 65.2 | – | – | – | – | – | – |
| CN(C)CCNc1nc2c(c(=O)n(C)c(=O)n2C)n1C | – | > 100 | > 100 | – | > 100 | > 100 | > 100 | > 100 | > 100 | > 100 | – | – | – | – | – | – |
| COC(=O)c1cc(OCc2cc(OCc3ccc(Br)cc3)cc(OCc3ccc(Br)cc3)c2)cc(OCc2cc(OCc3ccc(Br)cc3)cc(OCc3ccc(Br)cc3)c2)c1 | > 100 | > 100 | > 100 | > 100 | > 100 | – | – | > 100 | > 100 | > 100 | – | – | – | – | – | – |
| O=C(O)c1cc2sc(C(=O)O)cc2s1 | – | – | > 100 | – | > 100 | > 100 | > 100 | > 100 | > 100 | > 100 | – | – | – | – | – | – |
| O=C1OCC(CN2CCC(n3c(=O)[nH]c4ccccc43)CC2)=C1c1ccccc1 | 77.2 | 96.4 | 76.7 | 41.6 | 35.6 | > 100 | 51.1 | 33.4 | 60.6 | – | – | – | – | – | – | – |
| O=Cc1ccc(Oc2c3ccccc3nc3ccccc23)cc1 | 28.6 | 45.4 | 20.2 | 20.1 | 4.12 | – | – | 10.7 | 26 | 17.7 | – | – | – | – | – | – |
| COc1ccc(OC/C(N=Cc2cccnc2)=N/NC(=O)c2ccncc2)cc1 | > 100 | > 100 | > 100 | > 100 | > 100 | > 100 | > 100 | > 100 | > 100 | – | – | – | – | – | – | – |
| COc1ccccc1N1C(=O)/C(=C\c2ccccc2)SC1c1cc(OC)c(OC)c(OC)c1 (stereo not drawn) | > 100 | > 100 | > 100 | 68.9 | – | – | – | > 100 | – | > 100 | – | – | – | – | – | – |
| O=CC1C(=O)Nc2nc3ccccc3n2C1c1ccccc1 (stereo not drawn) | – | 27.4 | 36.9 | 42.4 | 44.6 | 43.3 | 27.3 | 34 | 20.7 | 31.3 | – | – | – | – | – | – |
| [B]C(=O)NC(CC(C)C)C(=O)NC1c2ccsc2C(=O)C1O (stereo not drawn) (tested in a mixture with another compound) | > 100 | > 100 | > 100 | > 100 | > 100 | > 100 | > 100 | > 100 | – | > 100 | 44.6 µM and > 100 µM | – | – | – | – | – |
| COc1cc2oc(=O)cc(C)c2c(OC)c1OC | – | > 100 | > 100 | > 100 | – | > 100 | > 100 | > 100 | > 100 | – | – | – | – | – | – | – |
| COc1ccc(C(CC(=O)c2ccc(O)cc2)C(C(=O)c2ccc(O)cc2)C(c2ccc(OC)cc2)C2C(=O)NC(=S)NC2=O)cc1 (stereo not drawn) | – | 33.2 | 40 | 59.8 | – | 55.7 | 32.3 | 39.3 | – | > 100 | – | – | – | – | – | – |
| O=c1oc2ccc([N+](=O)[O-])cc2cc1-c1csc(-c2ccccc2)n1 | > 100 | > 100 | > 100 | > 100 | > 100 | > 100 | > 100 | > 100 | – | > 100 | – | – | – | – | – | – |
| COc1ccc2oc(=O)c(-c3nc4ccccc4s3)cc2c1 | > 100 | – | > 63.1 | > 100 | 13.7 | > 100 | 38.9 | > 58.3 | 43.7 | 58.2 | – | – | – | – | – | – |
| Cc1cn(C2CC(/[N+]([O-])=N\Nc3ccc([N+](=O)[O-])cc3)C(CO)O2)c(=O)[nH]c1=O (stereo not drawn) | > 100 | – | > 100 | > 100 | > 100 | > 100 | > 100 | > 100 | > 100 | > 100 | – | – | – | – | – | – |
| COC(=O)/C=C/[C@H]1[C@H](C)N1S(=O)(=O)c1ccc(C)cc1 (stereo partly drawn) | > 100 | > 100 | > 100 | > 100 | > 100 | > 100 | > 100 | > 100 | > 100 | – | – | – | – | – | – | – |
| CN=C(NC#N)NCc1ccccc1 | > 100 | – | > 100 | – | > 100 | > 100 | > 100 | > 100 | > 100 | > 100 | – | – | – | – | – | – |
| COC(=O)CC(c1ccccc1)C(C#N)(OP1(=O)OC(c2ccccc2)C(C)N1C)c1ccccc1 (stereo not drawn) | > 100 | > 100 | – | > 100 | – | > 100 | > 100 | > 100 | > 100 | > 100 | – | – | – | – | – | – |
| COc1cc(/C=C2\CCCC3=C2N=C2SC=NN2C3c2cc(OC)c(OC)c(OC)c2)cc(OC)c1OC (stereo not drawn) | – | > 100 | – | > 100 | > 100 | – | – | 7.1 | 9.32 | > 100 | 2.98 µM | 2.4 | 3.82 | 3.02 | 3.1 | 2.9 |
| O=C1C=C(NCCc2ccc(O)cc2)C(=O)C=C1NCCc1ccc(O)cc1 | > 100 | > 100 | > 100 | > 100 | – | > 100 | > 100 | – | > 100 | > 100 | – | – | – | – | – | – |
| COc1ccc([C@H]2C=C(c3cc(F)c(Cl)cc3Cl)N=c3s/c(=C\c4ccc(-c5ccc(Cl)cc5Cl)o4)c(=O)n32)cc1 | 47.8 | > 100 | > 100 | > 100 | > 100 | > 100 | > 100 | > 100 | – | > 100 | – | – | – | – | – | – |
